Measured values as given in patent publication US7507728B2, “Halogen substituted imidazol[1,5-A][1,2,4]triazolo[1,5-D][1,4]benzodiazepine derivatives” (priority 2004, dated 2009).
Like-named read-outs stand apart in the source and are kept apart here.

How the values were obtained:
[1] = biological target: T1, GABA A receptor α2β3γ2 (hα2) (Homo sapiens, UniProt P18507+P47869); test: [3H]flumazenil competition binding, human GABA A α2β3γ2
T1 construct: expressed in transfected cells; host or cells: HEK293, transiently transfected; membranes
Description: (§1) The affinity of compounds at GABA A receptor subtypes was measured by competition for [^3H]flumazenil (85 Ci/mmol; Roche) binding to HEK293 cells expressing rat (stably transfected) or human (transiently transfected) receptors of composition α1β3γ2, α2β3γ2, α3β3γ2 and α5β3γ2.
(§2) Cell pellets were suspended in Krebs-tris buffer (4.8 mM KCl, 1.2 mM CaCl2, 1.2 mM MgCl2, 120 mM NaCl, 15 mM Tris; pH 7.5; binding assay buffer), homogenized by polytron for ca. 20 sec on ice and centrifuged for 60 min at 4° C. (50000 g; Sorvall, rotor: SM24=20000 rpm). The cell pellets were resuspended in Krebs-tris buffer and homogenized by polytron for ca. 15 sec on ice. Protein was measured (Bradford method, Bio-Rad) and aliquots of 1 mL were prepared and stored at −80° C.
(§3) Radioligand binding assays were carried out in a volume of 200 μL (96-well plates) which contained 100 μL of cell memebranes, [^3H]flumazenil at a concentration of 1 nM for α1, α2, α3 subunits and 0.5 nM for α5 subunits and the test compound in the range of 10^−10−3×10^−6 M. Nonspecific binding was defined by 10^−5 M diazepam and typically represented less than 5% of the total binding. Assays were incubated to equilibrium for 1 hour at 4° C. and harvested onto GF/C uni-filters (Packard) by filtration using a Packard harvester and washing with ice-cold wash buffer (50 mM Tris; pH 7.5). After drying, filter-retained radioactivity was detected by liquid scintillation counting. Ki values were calculated using Excel-Fit (Microsoft) and are the means of two determinations.

[2] = biological target: T2, GABA A receptor α5β3γ2 (hα5) (Homo sapiens, UniProt P18507+P31644); test: [3H]flumazenil competition binding, human GABA A α5β3γ2
T2 construct: expressed in transfected cells; host or cells: HEK293, transiently transfected; membranes
Description: as §1, §2, §3

[3] = biological target: T3, GABA A receptor α1β3γ2 (hα1) (Homo sapiens, UniProt P14867+P18507); test: [3H]flumazenil competition binding, human GABA A α1β3γ2
T3 construct: expressed in transfected cells; host or cells: HEK293, transiently transfected; membranes
Description: as §1, §2, §3

[4] = biological target: T4, GABA A receptor α3β3γ2 (hα3) (Homo sapiens, UniProt P18507+P34903); test: [3H]flumazenil competition binding, human GABA A α3β3γ2
T4 construct: expressed in transfected cells; host or cells: HEK293, transiently transfected; membranes
Description: as §1, §2, §3

[5] = HEK293 cells transiently transfected, 0.5 nM [3H]flumazenil, mean of two determinations, read-out: Ki[nM] hα5
[6] = HEK293 cells transiently transfected, 1 nM [3H]flumazenil, mean of two determinations, read-out: Ki[nM] hα1
[7] = HEK293 cells transiently transfected, 1 nM [3H]flumazenil, mean of two determinations, read-out: Ki[nM] hα2
[8] = HEK293 cells transiently transfected, 1 nM [3H]flumazenil, mean of two determinations, read-out: Ki[nM] hα3

Row | SMILES | Ki [1] | Ki [2, 5] | Ki [3, 6] | Ki [4] | Ki [1, 7] | Ki [4, 8] | Ki [2] | Ki [3]
1 | Clc1ncn2c1Cn1ncnc1-c1cc(-c3cccnc3)ccc1-2 [Example 57, 10-Chloro-3-(pyridin-3-yl)-9H-imidazo[1,5-a][1,2,4]triazolo[1,5-d][1,4]benzodiazepine] | 33.9 nM | 6.7 nM | 9.4 nM | 21.7 nM |  |  |  | 
2 | Brc1ncn2c1Cn1ncnc1-c1ccccc1-2 [Example 46, 10-Bromo-9H-imidazo[1,5-a][1,2,4]triazolo[1,5-d][1,4]benzodiazepine] | 0.8 nM | 0.2 nM | 2.4 nM | 0.6 nM |  |  |  | 
3 | Clc1ncn2c1Cn1ncnc1-c1cc(NC3CC3)ccc1-2 [Example 72, 10-chloro-3-cyclopropylamino-9H-imidazo[1,5-a][1,2,4]triazolo[1,5-d][1,4]benzodiazepine] | 93.7 nM | 2.2 nM | 21 nM | 78.8 nM |  |  |  | 
4 | Clc1ncn2c1Cn1ncnc1-c1cc(Br)ccc1-2 [Example 21, 3-Bromo-10-chloro-9H-imidazo[1,5-a][1,2,4]triazolo[1,5-d][1,4]benzodiazepine] |  | 1.4 nM | 33 nM |  | 24.1 nM | 8.8 nM |  | 
5 | Clc1ncn2c1Cn1ncnc1-c1cc(C3CC3)ccc1-2 [Example 30, 10-Chloro-3-cyclopropyl-9H-imidazo[1,5-a][1,2,4]triazolo[1,5-d][1,4]benzodiazepine] | 18.7 nM | 1.2 nM | 28.7 nM | 20.4 nM |  |  |  | 
6 | O=C(Nc1ccc2c(c1)-c1ncnn1Cc1c(Cl)ncn1-2)C1CC1 [Example 50, 3-(Cyclopropanecarbonyl-amino)-10-chloro-9H-imidazo[1,5-a][1,2,4]triazolo[1,5-d][1,4]benzodiazepine] |  | 15.8 nM |  |  |  |  |  | 
7 | Cc1ccc2c(c1)-c1ncnn1Cc1c(Cl)ncn1-2 [Example 22, 10-Chloro-3-methyl-9H-imidazo[1,5-a][1,2,4]triazolo[1,5-d][1,4]benzodiazepine] | 40.5 nM | 1.8 nM | 19.6 nM | 21.4 nM |  |  |  | 
8 | COC(=O)c1ccc2c(c1)-c1ncnn1Cc1c(Cl)ncn1-2 [Example 69, 10-Chloro-3-(methoxy-carbonyl)-9H-imidazo[1,5-a][1,2,4]triazolo[1,5-d][1,4]benzodiazepine] | 11.6 nM | 1 nM | 7.5 nM | 7.5 nM |  |  |  | 
9 | CNc1ccc2c(c1)-c1ncnn1Cc1c(Cl)ncn1-2 [Example 12, 10-Chloro-3-methylamino-9H-imidazo[1,5-a][1,2,4]triazolo[1,5-d][1,4]benzodiazepine] | 15.7 nM | 1.8 nM | 5.9 nM | 8 nM |  |  |  | 
10 | Fc1ccc2c(c1)-c1ncnn1Cc1c(Cl)ncn1-2 [Example 2, 10-Chloro-3-fluoro-9H-imidazo[1,5-a][1,2,4]triazolo[1,5-d][1,4]benzodiazepine] | 1.2 nM | 0.3 nM | 0.7 nM | 0.78 nM |  |  |  | 
11 | C=C=Cc1ccc2c(c1)-c1ncnn1Cc1c(Cl)ncn1-2 [Example 70, 10-Chloro-3-(propa-1,2-dienyl)-9H-imidazo[1,5-a][1,2,4]triazolo[1,5-d][1,4]benzodiazepine] | 30.3 nM | 3.2 nM | 26.9 nM | 30.7 nM |  |  |  | 
12 | CCCCc1ccc2c(c1)-c1ncnn1Cc1c(Cl)ncn1-2 [Example 65, 3-Butyl-10-chloro-9H-imidazo[1,5-a][1,2,4]triazolo[1,5-d][1,4]benzodiazepine] |  |  |  |  | 106 nM | 115 nM | 9.6 nM | 39.2 nM
13 | Fc1ccc2c(c1)-c1ncnn1Cc1c(Br)ncn1-2 [Example 47, 10-Bromo-3-fluoro-9H-imidazo[1,5-a][1,2,4]triazolo[1,5-d][1,4]benzodiazepine] | 3.7 nM | 0.5 nM | 2.1 nM | 3.9 nM |  |  |  | 
14 | FC(F)c1ccc2c(c1)-c1ncnn1Cc1c(Cl)ncn1-2 [Example 32, 10-Chloro-3-difluoromethyl-9H-imidazo[1,5-a][1,2,4]triazolo[1,5-d][1,4]benzodiazepine] | 40.1 nM | 1.1 nM | 20.5 nM | 16 nM |  |  |  | 
15 | COc1ccc2c(c1)-c1ncnn1Cc1c(Cl)ncn1-2 [Example 3, 10-Chloro-3-methoxy-9H-imidazo[1,5-a][1,2,4]triazolo[1,5-d][1,4]benzodiazepine] | 17.2 nM | 0.8 nM | 12.2 nM | 11.7 nM |  |  |  | 
16 | C=COc1ccc2c(c1)-c1ncnn1Cc1c(Cl)ncn1-2 [Example 10, 10-Chloro-3-vinyloxy-9H-imidazo[1,5-a][1,2,4]triazolo[1,5-d][1,4]benzodiazepine] | 25.6 nM | 1.2 nM | 22.4 nM | 11.4 nM |  |  |  | 
17 | FCCOc1ccc2c(c1)-c1ncnn1Cc1c(Cl)ncn1-2 [Example 7, 10-Chloro-3-(2-fluoro-ethoxy)-9H-imidazo[1,5-a][1,2,4]triazolo[1,5-d][1,4]benzodiazepine] | 25 nM | 1.3 nM | 18.5 nM | 20.7 nM |  |  |  | 
18 | Clc1ncn2c1Cn1ncnc1-c1ccccc1-2 [Example 1, 10-Chloro-9H-imidazo[1,5-a][1,2,4]triazolo[1,5-d][1,4]benzodiazepine] | 1.5 nM | 0.3 nM | 3.8 nM | 0.7 nM |  |  |  | 
19 | Clc1ccc2c(c1)-c1ncnn1Cc1c(I)ncn1-2 [Example 48, 3-Chloro-10-iodo-9H-imidazo[1,5-a][1,2,4]triazolo[1,5-d][1,4]benzodiazepine] | 14.7 nM | 1.4 nM | 9.2 nM | 11.3 nM |  |  |  | 
20 | C=Cc1ccc2c(c1)-c1ncnn1Cc1c(Cl)ncn1-2 [Example 66, 10-Chloro-3-vinyl-9H-imidazo[1,5-a][1,2,4]triazolo[1,5-d][1,4]benzodiazepine] |  | 1.4 nM | 20.6 nM |  | 17.5 nM | 16.8 nM |  | 
21 | FC(F)COc1ccc2c(c1)-c1ncnn1Cc1c(Cl)ncn1-2 [Example 8, 10-Chloro-3-(2,2-difluoro-ethoxy)-9H-imidazo[1,5-a][1,2,4]triazolo[1,5-d][1,4]benzodiazepine] | 29.4 nM | 2 nM | 22.1 nM | 24.4 nM |  |  |  | 
22 | CCCc1ccc2c(c1)-c1ncnn1Cc1c(Cl)ncn1-2 [Example 64, 10-Chloro-3-propyl-9H-imidazo[1,5-a][1,2,4]triazolo[1,5-d][1,4]benzodiazepine] |  | 7 nM | 58.8 nM |  | 136 nM | 187 nM |  | 
